Patent publication US20260347373A1, “HETEROCYCLIC COMPOUNDS, COMPOSITIONS THEREOF, AND METHODS OF TREATMENT THEREWITH” (BeOne Medicines I GmbH, priority 2023, published 2026)
Like-named read-outs stand apart in the source and are kept apart here.

Tests used:
WT KRAS = WT KRAS (Homo sapiens, UniProt P01116); assay: KRAS WT Probe Displacement Assay (TR-FRET, GDP-loaded); format: binding
Description: (§1) The synthetic routes of probe 1 and 2, which have been disclosed in PCT/CN2022/070676, are hereby incorporated herein.

KRAS G12D = KRAS G12D (Homo sapiens, UniProt P01116, G12D); assay: KRAS G12D Probe Displacement Assay (TR-FRET, GDP-loaded); format: binding
Description: as §1

[1] = KRAS WT, read-out: KRAS^WT Probe Displacement Assay IC50
[2] = KRAS G12D, read-out: KRAS^G12D Probe Displacement Assay IC50
[3] = KRAS^WT Probe Displacement Assay IC50, KRAS WT
[4] = KRAS^G12D Probe Displacement Assay IC50, KRAS G12D

WT KRAS, sequence (P01116 1-188 isoform P01116-2): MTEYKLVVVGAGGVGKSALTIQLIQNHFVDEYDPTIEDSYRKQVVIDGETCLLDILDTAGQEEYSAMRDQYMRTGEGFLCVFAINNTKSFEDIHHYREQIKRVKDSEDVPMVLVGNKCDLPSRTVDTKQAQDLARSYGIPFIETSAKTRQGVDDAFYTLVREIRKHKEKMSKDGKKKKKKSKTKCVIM
KRAS G12D, sequence (P01116 1-188 isoform P01116-2 G12D): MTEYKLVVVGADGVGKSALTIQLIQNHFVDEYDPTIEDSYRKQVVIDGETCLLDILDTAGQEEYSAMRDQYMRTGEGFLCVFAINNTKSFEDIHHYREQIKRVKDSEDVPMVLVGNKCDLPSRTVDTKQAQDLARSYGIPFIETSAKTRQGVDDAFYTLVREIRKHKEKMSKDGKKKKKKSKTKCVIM

Row | Compound | IC50 (WT KRAS; [1]) [nM] | IC50 (KRAS G12D; [2]) [nM] | IC50 (WT KRAS; [3]) [nM] | IC50 (KRAS G12D; [4]) [nM]
1 | Cc1cc(N)cc(-c2nc3c4c(nc(OCC5(CN6C[C@H]7C[C@@H]6CO7)CC5)nc4c2F)N2C[C@H]4CC[C@H](N4)[C@H]2CCO3)c1C(F)(F)F [Example 65, 3-((6aR,7S,10R)-13-((1-(((1R,4R)-2-oxa-5-azabicyclo[2.2.1]heptan-5-yl)methyl)cyclopropyl)methoxy)-1-fluoro-5,6,6a,7,8,9,10,11-octahydro-4-oxa-3,11a,12,14,15-pentaaza-7,10-methanocyclohepta[4,5]cycloocta [1,2,3-de]naphthalen-2-yl)-5-methyl-4-(trifluoromethyl)aniline] | 3 to 1000 | < 0.3 | – | –
2 | Cc1cc(N)cc(-c2nc3c4c(nc(O[C@H]5COCC[C@@H]5N(C)C)nc4c2F)N2C[C@H]4CC[C@H](N4)[C@H]2CCO3)c1C(F)(F)F [Example 8, (3R,4S)-3-(((6aR,7S,10R)-2-(5-amino-3-methyl-2-(trifluoromethyl)phenyl)-1-fluoro-5,6,6a,7,8,9,10,11-octahydro-4-oxa-3,11a,12,14,15-pentaaza-7,10-methanocyclohepta[4,5]cycloocta [1,2,3-de]naphthalen-13-yl)oxy)-N,N-dimethyltetrahydro-2H-pyran-4-amine] | 3 to 1000 | 0.3 to 3 | – | –
3 | Cc1cc(N)cc(-c2nc3c4c(nc(OCC5(CN6CC=CC6CO)CC5)nc4c2F)N2C[C@H]4CC[C@H](N4)[C@H]2CCO3)c1C(F)(F)F (stereo partly drawn) [Example 161, (1-((1-((((6aR,7S,10R)-2-(5-amino-3-methyl-2-(trifluoromethyl)phenyl)-1-fluoro-5,6,6a,7,8,9,10,11-octahydro-4-oxa-3,11a,12,14,15-pentaaza-7,10-methanocyclohepta[4,5]cycloocta[1,2,3-de]naphthalen-13-yl)oxy)methyl)cyclopropyl)methyl)-2,5-dihydro-1H-pyrrol-2-yl)methanol] | 3 to 1000 | < 0.3 | – | –
4 | COC1(C)CN(CC2(COc3nc4c5c(nc(-c6cc(N)cc(C)c6C(F)(F)F)c(F)c5n3)OCC[C@@H]3[C@@H]5CC[C@H](CN43)N5)CC2)C1 [Example 84, 3-((6aR,7S,10R)-1-fluoro-13-((1-((3-methoxy-3-methylazetidin-1-yl)methyl)cyclopropyl)methoxy)-5,6,6a,7,8,9,10,11-octahydro-4-oxa-3,11a,12,14,15-pentaaza-7,10-methanocyclohepta [4,5]cycloocta [1,2,3-de]naphthalen-2-yl)-5-methyl-4-(trifluoromethyl)aniline] | 3 to 1000 | < 0.3 | – | –
5 | Cc1cc(N)cc(-c2nc3c4c(nc(OCC5(CN6CCC(C(F)(F)F)CC6)CC5)nc4c2F)N2C[C@H]4CC[C@H](N4)[C@H]2CCO3)c1C(F)(F)F [Example 113, 3-((6aR,7S,10R)-1-fluoro-13-((1-((4-(trifluoromethyl)piperidin-1-yl)methyl)cyclopropyl)methoxy)-5,6,6a,7,8,9,10,11-octahydro-4-oxa-3,11a,12,14,15-pentaaza-7,10-methanocyclohepta [4,5]cycloocta [1,2,3-de]naphthalen-2-yl)-5-methyl-4-(trifluoromethyl) aniline] | – | – | 0.3 to 3 | < 0.3
6 | CCN1CCN(CC2(COc3nc4c5c(nc(-c6cc(N)cc(C)c6C(F)(F)F)c(F)c5n3)OCC[C@@H]3[C@@H]5CC[C@H](CN43)N5)CC2)CC1 [Example 152, 3-((6aR,7S,10R)-13-((1-((4-ethylpiperazin-1-yl)methyl)cyclopropyl)methoxy)-1-fluoro-5,6,6a,7,8,9,10,11-octahydro-4-oxa-3,11a,12,14,15-pentaaza-7,10-methano-cyclohepta[4,5]cycloocta [1,2,3-de]naphthalen-2-yl)-5-methyl-4-(trifluoromethyl) aniline] | – | – | 3 to 1000 | < 0.3
7 | [2H]C([2H])([2H])N1C[C@H](OC)C[C@H]1[C@H](C)Oc1nc2c3c(nc(-c4cc(N)cc(C)c4C(F)(F)F)c(F)c3n1)OCC[C@@H]1[C@@H]3CC[C@H](CN21)N3 [Example 219, 3-((6aR,7S,10R)-1-fluoro-13-((S)-1-((2S,4R)-4-methoxy-1-(methyl-d3)pyrrolidin-2-yl)ethoxy)-5,6,6a,7,8,9,10,11-octahydro-4-oxa-3,11a,12,14,15-pentaaza-7,10-methanocyclohepta[4,5]cycloocta[1,2,3-de]naphthalen-2-yl)-5-methyl-4-(trifluoromethyl)aniline] | 3 to 1000 | < 0.3 | – | –
8 | Cc1cc(N)cc(-c2nc3c4c(nc(OCC5(CN6CCC7(CCOC7)C6)CC5)nc4c2F)N2C[C@H]4CC[C@H](N4)[C@H]2CCO3)c1C(F)(F)F (stereo partly drawn) [Example 188, 3-((6aR,7S,10R)-13-((1-((2-oxa-7-azaspiro[4.4]nonan-7-yl)methyl)cyclopropyl)methoxy)-1-fluoro-5,6,6a,7,8,9,10,11-octahydro-4-oxa-3,11a,12,14,15-pentaaza[7,10]methanocyclohepta[4,5]cycloocta[1,2,3-de]naphthalen-2-yl)-5-methyl-4-(trifluoromethyl)aniline] | < 0.3 | < 0.3 | – | –
9 | Cc1cc(N)cc(-c2nc3c4c(nc(OC[C@]5(CN(C)C)CC5(F)F)nc4c2F)N2C[C@H]4CC[C@H](N4)[C@H]2CC(C)O3)c1C(F)(F)F (single isomer, unassigned) [Example 248] | 0.3 to 3 | < 0.3 | – | –
10 | Cc1cc(N)cc(-c2nc3c4c(nc(OCC5(C)CN(CC6CC6)CC/C5=C\F)nc4c2F)N2C[C@H]4CC[C@H](N4)[C@H]2CCO3)c1C(F)(F)F (single isomer, unassigned) [Example 238] | 3 to 1000 | < 0.3 | – | –
11 | Cc1cc(N)cc(-c2nc3c4c(nc(OCC5(CN6CC(C)(O)C6)CC5)nc4c2F)N2C[C@H]4CC[C@H](N4)[C@H]2CCO3)c1C(F)(F)F [Example 81, 1-((1-((((6aR,7S, 10R)-2-(5-amino-3-methyl-2-(trifluoromethyl)phenyl)-1-fluoro-5,6,6a,7,8,9,10,11-octahydro-4-oxa-3,11a,12,14,15-pentaaza-7,10-methanocyclohepta [4,5]cycloocta [1,2,3-de]naphthalen-13-yl)oxy)methyl)cyclopropyl)methyl)-3-methylazetidin-3-ol] | 3 to 1000 | < 0.3 | – | –
12 | Cc1cc(N)cc(-c2nc3c4c(nc(OCC56CCCN5CC(F)(F)C6)nc4c2F)N2C[C@H]4CC[C@H](N4)[C@H]2CCO3)c1C(F)(F)F (stereo partly drawn) [Example 1, 3-((6aR,7S,10R)-13-((2,2-difluorotetrahydro-1H-pyrrolizin-7a(5H)-yl)methoxy)-1-fluoro-5,6,6a,7,8,9,10,11-octahydro-4-oxa-3,11a,12,14,15-pentaaza-7,10-methanocyclohepta[4,5]cycloocta[1,2,3-de]naphthalen-2-yl)-5-methyl-4-(trifluoromethyl)aniline] | 3 to 1000 | 0.3 to 3 | – | –
13 | Cc1nc(N)cc(-c2nc3c4c(nc(OCC5(CN6CCC(=C(F)F)C6)CC5)nc4c2F)N2C[C@H]4CC[C@H](N4)[C@H]2CCO3)c1C(F)(F)F [Example 150, 4-((6aR,7S,10R)-13-((1-((3-(difluoromethylene)pyrrolidin-1-yl)methyl)cyclopropyl)methoxy)-1-fluoro-5,6,6a,7,8,9,10,11-octahydro-4-oxa-3,11a,12,14,15-pentaaza-7,10-methano-cyclohepta[4,5]cycloocta [1,2,3-de]naphthalen-2-yl)-6-methyl-5-(trifluoromethyl)pyridin-2-amine] | 3 to 1000 | < 0.3 | – | –
14 | Cc1cc(N)cc(-c2nc3c4c(nc(OCC5(CN6CCC7(C6)CC7(F)F)CC5)nc4c2F)N2C[C@H]4CC[C@H](N4)[C@H]2CCO3)c1C(F)(F)F (mixture of isomers) [Example 90, 3-((6aR,7S,10R)-13-((1-((1,1-difluoro-5-azaspiro [2.4]heptan-5-yl)methyl)cyclopropyl)methoxy)-1-fluoro-5,6,6a,7,8,9,10,11-octahydro-4-oxa-3, 11a,12,14,15-pentaaza[7,10]methanocyclohepta[4,5]cycloocta[1,2,3-de]naphthalen-2-yl)-5-methyl-4-(trifluoromethyl)aniline] | 0.3 to 3 | < 0.3 | – | –
15 | CN1CCN(C)C(C)(COc2nc3c4c(nc(-c5cc(N)cc(Cl)c5C(F)(F)F)c(F)c4n2)OCC[C@@H]2[C@@H]4CC[C@H](CN32)N4)C1 (single isomer, unassigned) [Example 3] | 3 to 1000 | < 0.3 | – | –
16 | Cc1cc(N)cc(-c2nc3c4c(nc(OCC5(CN6C[C@@H](C)O[C@@H](C)C6)CC5)nc4c2F)N2C[C@H]4CC[C@H](N4)[C@H]2CCO3)c1C(F)(F)F [Example 64, 3-((6aR,7S,10R)-13-((1-(((2S,6R)-2,6-dimethylmorpholino)methyl)cyclopropyl)methoxy)-1-fluoro-5,6,6a,7,8,9,10,11-octahydro-4-oxa-3,11a,12,14,15-pentaaza-7,10-methanocyclohepta[4,5]cycloocta [1,2,3-de]naphthalen-2-yl)-5-methyl-4-(trifluoromethyl)aniline] | 0.3 to 3 | < 0.3 | – | –
17 | Cc1cc(N)cc(-c2nc3c4c(nc(OCC5(CN6CCC(O)(C(F)(F)F)C6)CC5)nc4c2F)N2C[C@H]4CC[C@H](N4)[C@H]2CCO3)c1C(F)(F)F (mixture of isomers) [Example 92, 1-((1-((((6aR,7S, 10R)-2-(5-amino-3-methyl-2-(trifluoromethyl)phenyl)-1-fluoro-5,6,6a,7,8,9,10,11-octahydro-4-oxa-3,11a,12,14,15-pentaaza-7,10-methanocyclohepta [4,5]cycloocta[1,2,3-de]naphthalen-13-yl)oxy)methyl)cyclopropyl)methyl)-3-(trifluoromethyl) pyrrolidin-3-ol] | 3 to 1000 | < 0.3 | – | –
